Data on 48 molecules can be found in patent publication US20060025566A1, “Macrocyclic modulators of the ghrelin receptor” (Tranzyme Pharma Inc., priority 2003, published 2006).

The structures appear in SMILES notation.

T1 sequence (Q92847 whole entry): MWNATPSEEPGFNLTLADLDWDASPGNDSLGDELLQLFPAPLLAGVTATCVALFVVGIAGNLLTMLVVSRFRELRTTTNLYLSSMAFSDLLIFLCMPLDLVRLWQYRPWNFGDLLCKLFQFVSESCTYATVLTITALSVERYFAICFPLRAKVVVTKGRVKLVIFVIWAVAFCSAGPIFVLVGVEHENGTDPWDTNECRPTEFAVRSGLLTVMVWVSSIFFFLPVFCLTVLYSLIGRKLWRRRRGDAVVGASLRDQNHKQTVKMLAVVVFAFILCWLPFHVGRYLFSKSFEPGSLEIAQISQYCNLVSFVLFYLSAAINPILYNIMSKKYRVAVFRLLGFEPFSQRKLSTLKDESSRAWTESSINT

One assay concerns the target T1, human growth hormone secretagogue receptor (hGHS-R1a) (Homo sapiens, UniProt Q92847).
T1 construct: purchased PerkinElmer BioSignal #RBHGHSM, lot#1887; host or cells: HEK-293, stably transfected (membranes)
In words: Competitive radioligand binding assay (ghrelin receptor), [125I]-ghrelin displacement on GHS-R/HEK 293 membranes. The note with it: Table 3C (compounds 18, 334-397), human ghrelin receptor; read-out: Ki. Here is the method:
The competitive binding assay at the human growth hormone secretagogue receptor (hGHS-R1a) was carried out analogously to assays described in the literature.
Multiscreen Harvest plates-GF/C (Millipore, #MAHFC 1H60) • 4. […] Bottom seal (Millipore, #MATAH0P00) • 7. […] Binding Buffer: 25 mM Hepes (pH 7.4), 1 mM CaCl2, 5 mM MgCl2, 2.5 mM EDTA, 0.4% BSA Assay Volumes
Competition experiments were performed in a 300 μl filtration assay format. • 1. 220 μL of membranes diluted in binding buffer • 2. 40 μL of compound diluted in binding buffer • 3. […] Compound Handling
Compounds were provided frozen on dry ice at a stock concentration of 10 mM diluted in 100% DMSO and stored at −80° C. until the day of testing. On the test day, compounds were allowed to thaw at rt O/N and then diluted in assay buffer according to the desired test concentrations.
Plates were sealed with TopSeal-A, vortexed gently and incubated at rt for 30 min. The reaction was arrested by filtering samples through Multiscreen Harvest plates (pre-soaked in 0.5% polyethyleneimine) using a Tomtec Harvester, washed 9 times with 500 μL of cold 50 mM Tris-HCl (pH 7.4, 4° C.), and then plates were air-dried in a fumehood for 30 min. A bottom seal was applied to the plates prior to the addition of 25 μL of MicroScint-0 to each well. […] Results were expressed as counts per minute (cpm).
Data were analyzed by GraphPad Prism (GraphPad Software, San Diego, Calif.) using a variable slope non-linear regression analysis.
• 1. […] Key Aspects of Method • 1. […] Results
As for `CC1(C)NCCOc2ccccc2C=CCNC(=O)[C@H](Cc2cccc(Cl)c2)NC(=O)C2(CCCC2)NC1=O` (stereo in doubt) [compound 349], the Ki lay within 0.01 to 0.1 µM. `CC1(C)NCCOc2ccccc2C=CCNC(=O)[C@H](Cc2cccc(Cl)c2)NC(=O)C(C)(C)NC1=O` (stereo in doubt) [compound 350]: the Ki was in the range of 0.1 to 1 µM. `C[C@@H]1NC(=O)C2(CCCC2)NCCOc2ccccc2C=CCNC(=O)[C@H](Cc2cccc(Cl)c2)NC1=O` (stereo in doubt) [compound 352]: the Ki lay within 0.1 to 1 µM.

Still in this assay, the particulars now being: Table 3E, human ghrelin receptor; read-out: Ki.
Take `CCC[C@@H]1NCCOc2ccccc2CCCNC(=O)[C@@H](Cc2ccccc2)NC(=O)[C@@H]2CCCN2C1=O`: the Ki lay in the range of 1 to 10 µM. Regarding `CCC[C@@H]1NCCOc2ccccc2CCCNC(=O)[C@@H](Cc2ccccc2)NC(=O)[C@H]2CCCN2C1=O`, the Ki was in the range of 0.1 to 1 µM. Regarding `CCC[C@@H]1NCCOc2ccccc2CCCNC(=O)[C@H](Cc2ccccc2)NC(=O)[C@@H]2CCCN2C1=O`, the Ki lay within 1 to 10 µM. Take `CCC[C@@H]1NCCOc2ccccc2CCCNC(=O)[C@H](Cc2ccccc2)NC(=O)[C@H]2CCCN2C1=O`: the Ki was in the range of 1 to 10 µM. On to `CCC(C)[C@@H]1NCCOc2ccccc2CCCNC(=O)[C@@H](Cc2ccccc2)NC(=O)[C@H]2C[C@H](O)CN2C1=O` (stereo partly drawn), for which the Ki is more than 10 µM. Consider `C[C@@H]1C(=O)N[C@H](Cc2ccccc2)C(=O)NCCCc2ccccc2OCCN2CCC[C@H]2C(=O)N1C`, for which the Ki lay in the range of 0.1 to 1 µM. On the same count and under the same terms, the result for `CCC(C)[C@@H]1NCCOc2ccccc2CCCNC(=O)[C@@H](Cc2ccccc2)N2CC[C@@H](NC1=O)C2=O` (stereo partly drawn) reads 0.1 to 1 µM; that for `CCC(C)[C@@H]1NCCOc2ccccc2CCCNC(=O)[C@@H](Cc2ccccc2)N2CC[C@H](NC1=O)C2=O` (stereo partly drawn), more than 10 µM. Same read-out and setting: the result for `CCC(C)[C@@H]1NCCOc2ccccc2CCCNC(=O)[C@@H](Cc2ccccc2)N2CC[C@H](C2=O)N(C)C1=O` (stereo partly drawn) reads 0.01 to 0.1 µM.

Regarding `CCC(C)[C@@H]1NCCOc2ccccc2CCCNC(=O)[C@@H](Cc2ccccc2)N2CC[C@@H](C2=O)N(C)C1=O` (stereo partly drawn), the Ki lay within 0.1 to 1 µM.

The same assay, now with this note: [125I]-ghrelin competition, GHS-R/HEK 293 membranes; Table 3A; read-out: Binding Activity at the Human Ghrelin Receptor.
Consider `CCC(C)C1NCCc2ccccc2CCCCNC(=O)C(Cc2ccccc2)NC(=O)C(C)N(C)C1=O` (single isomer, unassigned) [189a], for which the Ki was in the range of 0.1 to 1 µM.

In the case of `CC(C)CC1NCCOc2ccccc2C=CCNC(=O)C(Cc2ccccn2)NC(=O)C2(CCCC2)NC1=O` (stereo in doubt) [160a], the Ki is more than 1 µM. Same read-out and setting: the result for `CC(C)C[C@@H]1NCCOc2ccccc2C=CCNC(=O)[C@H](Cc2ccc(-c3ccccc3)cc2)NC(=O)C2(CCCC2)NC1=O` (stereo in doubt) [compound 157] reads 0.1 to 1 µM; that for `CC(C)C[C@@H]1NCCOc2ccccc2C=CCNC(=O)[C@H](Cc2ccc3ccccc3c2)NC(=O)C2(CCCC2)NC1=O` (stereo in doubt) [compound 159], 0.01 to 0.1 µM. On the same count and under the same terms, for `CC(C)C[C@@H]1NCCOc2ccccc2C=CCNC(=O)[C@H](Cc2cccs2)NC(=O)C2(CCCC2)NC1=O` (stereo in doubt) [compound 164] the value was 0.1 to 1 µM; for `CC[C@@H]1NC(=O)C2(CCCC2)NC(=O)[C@H](CC(C)C)NCCOc2ccccc2C=CCNC1=O` (stereo in doubt) [compound 165], more than 10 µM; for `CC(C)[C@@H]1NCCOc2ccccc2C=CCNC(=O)[C@H](Cc2ccccc2)NC(=O)C2(CC2)NC1=O` (stereo in doubt) [compound 199], 0.1 to 1 µM.

As to `CC(C)C[C@H]1C(=O)NC2(CCCC2)C(=O)N[C@@H](Cc2ccccc2)C(=O)NCC=Cc2ccccc2OCCN1C` (stereo in doubt) [compound 203], the Ki lay within 1 to 10 µM. Take `CC(C)C1NCCOc2ccccc2C=CCNC(=O)C(Cc2ccccc2)NC(=O)C2(CCNCC2)NC1=O` (stereo in doubt) [compound 211]: the Ki was more than 1 µM.

Still in this assay, the particulars now being: binding activity at the human ghrelin receptor, [125I]-ghrelin competition, GHS-R/HEK 293 membranes; read-out: Ki.
On to `CCC1NCCOc2ccccc2C=CCNC(=O)C(Cc2ccccc2)NC(=O)C2(CCCC2)NC1=O` (single isomer, unassigned) [136a], for which the Ki was 0.01 to 0.1 µM.

As for `CCC1NCCOc2ccccc2/C=C/CNC(=O)C(Cc2ccccc2)NC(=O)C2(CCCC2)NC1=O` (single isomer, unassigned) [136b], the Ki was in the range of 0.1 to 1 µM.

Take `CCC(C)C1NCCOc2ccccc2CCCNC(=O)C(Cc2ccccc2)NC(=O)C(C(C)C)N(C)C1=O` (single isomer, unassigned) [145a]: the Ki was 0.1 to 1 µM. Same read-out and setting: the result for `CCC(C)C1NCCOc2ccccc2CCCNC(=O)C(Cc2ccccc2)NC(=O)C(C(C)C)N(C)C1=O` (single isomer, unassigned) [145b] reads more than 1 µM; that for `CCC[C@@H]1NC(=O)[C@@H](C(C)C)NCCOc2ccccc2C=CCNC(=O)[C@H](Cc2ccccc2)NC1=O` (stereo in doubt) [compound 13], 0.1 to 1 µM; that for `CC[C@H](C)[C@@H]1NCCOc2ccccc2C=CCNC(=O)[C@H](Cc2ccccc2)NC(=O)[C@@H](C)NC1=O` (stereo in doubt) [compound 14], 0.1 to 1 µM. Still for that read-out and setting: for `CC(C)C[C@@H]1NCCOc2ccccc2C=CCNC(=O)[C@H](CCC(=O)O)NC(=O)C2(CCCC2)NC1=O` (stereo in doubt) [compound 45] the value was more than 10 µM; for `CC(C)C[C@@H]1NCCOc2ccccc2C=CCNC(=O)[C@H](C(C)C)NC(=O)C2(CCCC2)NC1=O` (stereo in doubt) [compound 46], more than 10 µM; for `O=C1NC2(CCCC2)C(=O)N[C@@H](Cc2ccccc2)C(=O)NCC=Cc2ccccc2OCCN[C@H]1Cc1ccccc1Cl` (stereo in doubt) [compound 122], 0.1 to 1 µM. In the case of `O=C1NC2(CCCC2)C(=O)N[C@@H](Cc2ccccc2)C(=O)NCC=Cc2ccccc2OCCN[C@H]1Cc1cccc(Cl)c1` (stereo in doubt) [compound 123], the Ki was in the range of 0.1 to 1 µM. For the molecule `O=C1NC2(CCCC2)C(=O)N[C@@H](Cc2ccccc2)C(=O)NCC=Cc2ccccc2OCCN[C@H]1Cc1ccc(Cl)cc1` (stereo in doubt) [compound 124], the Ki is 1 to 10 µM.

In the case of `O=C1NC2(CCCC2)C(=O)N[C@@H](Cc2ccccc2)C(=O)NCC=Cc2ccccc2OCCN[C@H]1CCc1ccccc1` (stereo in doubt) [compound 126], the Ki fell in the range of 0.1 to 1 µM. The same measure, in the same setting: the result for `O=C1NC2(CCCC2)C(=O)N[C@@H](Cc2ccccc2)C(=O)NCC=Cc2ccccc2OCCN[C@H]1Cc1ccc(-c2ccccc2)cc1` (stereo in doubt) [compound 128] reads more than 10 µM. Consider `O=C1NC2(CCCC2)C(=O)N[C@@H](Cc2ccccc2)C(=O)NCC=Cc2ccccc2OCCN[C@H]1Cc1ccncc1` (stereo in doubt) [compound 133], for which the Ki is more than 1 µM. As for `O=C1NC2(CCCC2)C(=O)NC(Cc2ccccc2)C(=O)NCC=Cc2ccccc2OCCNC1Cc1cccs1` (stereo in doubt) [compound 135], the Ki lay within 0.1 to 1 µM. With `CC[C@H](C)[C@@H]1NCCOc2ccccc2C=CCNC(=O)[C@H](Cc2ccccc2)NC(=O)C2(CCCC2)NC1=O` (stereo in doubt) [compound 138], the Ki is 0.01 to 0.1 µM.

Consider `CC(C)[C@@H]1NCCOc2ccccc2C=CCNC(=O)[C@H](Cc2ccccc2)NC(=O)C2(CCCCC2)NC1=O` (stereo in doubt) [compound 139], for which the Ki lay within 0.1 to 1 µM. Consider `CC(C)C1NCCOc2ccccc2C=CCNC(=O)C(Cc2ccccc2)NC(=O)C2(CCSCC2)NC1=O` (stereo in doubt) [compound 143], for which the Ki was in the range of 0.1 to 1 µM. For `CC(C)C[C@@H]1NCCOc2ccccc2C=CCNC(=O)[C@H](CCc2ccccc2)NC(=O)C2(CCCC2)NC1=O` (stereo in doubt) [compound 155], the Ki is more than 0.5 µM. With `CCC(C)C1NCCOc2ccccc2CCCNC(=O)C(Cc2ccccc2)NC(=O)C(C(C)CC)N(C)C1=O` (stereo not drawn) [150a], the Ki was in the range of 0.1 to 1 µM.

The assay is the same for the next values; noted with them: binding activity at the human ghrelin receptor, [125I]-ghrelin displacement; read-out: Ki.
In the case of `C[C@@H]1C(=O)N[C@H](Cc2ccc(Cl)cc2)C(=O)NCC=Cc2ccccc2OCCN[C@@H](C2CC2)C(=O)N1C` (stereo in doubt) [compound 308], the Ki lay in the range of 0.0001 to 0.01 µM. As for `CC[C@H](C)[C@@H]1NCCOc2ccccc2CCCNC(=O)C(Cc2cccc(Cl)c2)NC(=O)C2(CCCC2)NC1=O` (stereo in doubt) [compound 369], the Ki lay in the range of 0.01 to 0.1 µM.

Still in this assay, the particulars now being: second table titled 3C (compounds 435-449), human ghrelin receptor; read-out: Ki.
For the molecule `CCC(C)C1NCCOc2ccccc2/C=C/CNC(=O)C(CO)NC(=O)C2(CCCC2)NC1=O` (single isomer, unassigned) [442a], the Ki was more than 10 µM.

Consider `CCC(C)C1NCCOc2ccccc2/C=C/CNC(=O)C(COC)NC(=O)C2(CCCC2)NC1=O` (single isomer, unassigned) [443a], for which the Ki is more than 10 µM. Regarding `CC(C)CC1NCCOc2ccccc2/C=C/CNC(=O)C(Cc2c[nH]cn2)NC(=O)C2(CCCC2)NC1=O` (single isomer, unassigned) [444a], the Ki is more than 10 µM.

For `CC1C(=O)NC(Cc2ccc(F)cc2)C(=O)NCCOCCOCCNC(C2CC2)C(=O)N1C` (single isomer, unassigned) [446a], the Ki lay in the range of 1 to 10 µM.
